“Also recorded” adds a separate entry of the source.
Legend:
[1] = tested on: tissue recombination orthotopic xenografts of primary human CAF and Rv1; assay: Tissue recombination orthotopic xenografts of primary human CAF and Rv1; settings: castrated mice given enzalutamide vs control intact mice
Excerpt: FIG. 13A) Mice were orthotopically grafted with tissue recombinants of CW22Rv1 and CAF. […] FIG. 13B) H&E staining was followed by immune-localization for phosphorylated-histoneH3 (PH-H3), TUNEL, and chromogranin A (ChromA). Scale bar represents 32 μm. The mitotic (PH-H3) and cell death (TUNEL) indexes were plotted. n>5, error bars are mean+/−SD and *p<0.05, **p<0.01, ***p<0.001, compared to control unless otherwise indicated.
Male beige/SCID mice (Envigo), 6-8 or 10-12 weeks old, were used for subrenal capsule or prostatic orthotopic grafting, respectively, as previously described (Banerjee et al., 2014, Oncogene 33, 4924-4931; Hayward et al., 2001, Cancer Res 61, 8135-8142). In accordance with institutional animal care and use committee approval, 2×10^5 CW22Rv1 cells and 6×10^5 stromal cells were suspended in 20 μL type I collagen to be grafted into the subrenal capsule of mice castrated after seven days and sacrificed 21 days after castration. […] Tumor volume was calculated using the modified ellipsoid formula volume3=π/6×(width)2×length.
Paraffin embedded tissues were sectioned (5 μm thick) were subjected to hematoxylin and eosin (H&E) staining and immunohistochemistry as previously reported (Placencio et al., 2008, Cancer research 68, 4709-4718). […] Anti-phosphorylated histone H3 (06-570, Millipore), anti-CD105 (NCL-CD105, Leica Microsystems), anti-Ki67 (ab16667, Abcam), and anti-chromogranin A (sc-13090, Santa Cruz Biotechnology), anti-SFRP1 (601-401-475S, Rockland Immunochemicals), and anti-survivin (2808, Cell Signaling) antibodies were incubated at 4° C. overnight. Secondary antibody development was performed with Dako Cytomation mouse or rabbit kits and visualized using 3,3′-diaminobenzidine tetrahydrochloride substrate. TUNEL staining was performed per manufacturer's protocol (S7100, Millipore). Slides were scanned with a Leica Biosystems Aperio AT. Up to five fields per tissue were quantitated with Fiji (ImageJ) using a custom written macro. Mitotic and death index were quantitated by taking the total number of positively-stained nuclei divided by the total number of nuclei.

[2] = tested on: CD105 cell surface expression in human CW22Rv1 epithelia and mouse prostatic fibroblasts; assay: 3D co-culture, CD105 cell surface expression by FACS; type: cell-based; settings: enzalutamide vs vehicle; epithelial and fibroblastic populations
Method: After 72 hours, the cells were dissociated and assessed by FACS for CD105 expression as shown.
A modified version of the 3D organotypic co-culture system was performed in a collagen matrix similar to that previously reported (Stark et al., 1999, J Invest Dermatol 112, 681-691). Collagen matrix gels were prepared by mixing five volumes of rat tail collagen I with two volumes of matrigel (NCI), one volume of 10× DMEM medium (GE Healthcare Life Sciences), and one volume of FBS (Atlanta Biologicals), Rv1 and primary mouse prostatic fibroblasts were combined in a 1:3 ratio. Nylon squares were coated with collagen and placed on metal grids in a 6-well plate. Gel plugs (150 μl) were transferred onto the nylon squares and media was added to the level of the nylon mesh. After 72 hours, the cells were dissociated from the matrix with collagenase and dispersed for FACS analysis.
FACS experiments were performed with eBiosciences antibodies: anti-human Stro-1-FITC (340105), anti-human CD90-PE (12-0909-42), anti-human CD105-APC (17-1057-41), anti-mouse CD105-APC (17-1051-82), anti-human CD117-PE-Cy7 (15-1178-41), anti-human Ki67-PECy7 (25-5699-41), and anti-human EpCAM-PE (12-9326-41). All events were acquired on a BD LSRII flow cytometer in the Cedars-Sinai Medical Center FACS core installed with BD FACSDiva software. Files were analyzed using FlowJo software v10.2. […]

Rv1 = assay: MTT proliferation assay; type: cell-based, human; settings: enzalutamide alone, absence of fibroblastic cells; p<0.0001
Method: (§1) CW22Rv1, C42B, and PC3 cells from ATCC were expanded as directed. Prostatectomy specimens from Cedars-Sinai Medical Center or the Greater Los Angeles Veterans Affairs were cultured to generate NAF and CAF cells using the same method, as C57BL/6 mouse wild-type prostatic fibroblasts were grown as previously reported (Franco et al., 2011, Cancer research 71, 1272-1281; Kiskowski et al., 2011, Cancer research 68, 4709-4718). TRC105 and M1043 were provided by TRACON Pharmaceuticals, Inc. (San Diego, Calif.). Enzalutamide (Xtandi) was purchased from Medivation (San Francisco, Calif.).
(§2) 3000 cells per 96-well were treated for 72 hours using 5 wells per treatment. MTT reagent (M6494, Life Technologies) was prepared as directed, incubated for one hour at 37° C., and analyzed using manufacturer's recommendations.

C42B = assay: MTT proliferation assay; type: cell-based, human; settings: enzalutamide alone, absence of fibroblastic cells; p<0.0001
Method: as §1, §2

PC3 cells = assay: MTT proliferation assay; type: cell-based, human; settings: enzalutamide, absence of TRC105; no androgen receptor expression
Method: as §1, §2

[3] = tested on: PCa patient-derived xenograft (PDX); assay: PCa patient-derived xenograft (PDX), immune-localization of CD105 and SFRP1; type: in vivo, mice
Excerpt: See also FIG. 15. […] Scale bar represents 100 μm. […] See also FIG. 16.

22Rv1 cells [4] = assay: Total cellular ATP; type: cell-based, human; settings: with or without 4 Gy, 0-168 hours
Method: Cells were analyzed for mito-stress test by Seahorse-XF 168 hours following 4 Gy of radiation in the presence of IgG or TRC105. FIG. 26A) Basal respiration, non-mito respiration, proton leak, spare respiratory capacity, FIG. 26B) extracellular acidification rate (ECAR) and FIG. 26C) mitochondrial dependent ATP production were quantitated using Wave 2.3.0 analysis. Data are reported as mean+/−S.D. of a representative experiment (n=5) of 3 independent experiments. FIGS. 26A-26C, the first/left column depicts 0Gy+IgG, the second column depicts 0Gy+TRC105, the third column depicts 4Gy+IgG and the last/right column depicts 4Gy+TRC105. FIG. 26D) 22Rv1 cells treated with IgG, TRC105 or nicotinamide were irradiated (4 Gy). Total cellular ATP was measured 0, 24, 72, 120, and 168 hours post radiation. Within each group, the left column is IgG, middle column is TRC105 and the right column is nicotinamide. Data are reported as mean+/−S.D. of 3 independent experiments. (***p<0.001, ****p<0.0001).

p53 in 22Rv1 cells = assay: p53 status after irradiation; type: cell-based, human
Method: In search for an alternate process mediating TRC105 radiation sensitization the inventors examined changes in cell cycle. The impact of radiation on the cell cycle is well described, as causing a G2 cell cycle arrest that undergoes cell cycle redistribution. […] As SIRT1 has previously been reported to regulate p53 stability by de-acetylating p53, the inventors investigated p53 status with TRC105 treatment. 22Rv1 cells were treated with either TRC105 or 200 μM nicotinamide, an inhibitor of SIRT1 activity, prior to irradiation (4Gy). Cells were then collected at 0, 1, and 7 days post radiation to elucidate early and late p53 response. […] While loss-of-function p53 mutations are rare in prostate cancer, 90% of pancreatic cancers have p53 mutations. We therefore used two p53 mutant pancreatic cancer cell lines: HPAF-II and MIAPACA-2 to identify if TRC105 unresponsiveness to radiation was due to p53 loss of functionality.

22Rv1 cells [5] = assay: Cell counts with oligomycin and irradiation; type: cell-based, human; settings: irrespective of dose of oligomycin, 72 hrs; p<0.01
Method: 22Rv1 cells were treated with indicated doses of ATPase inhibitor, oligomycin and exposed to 4Gy irradiation. Within each group, the left column is 0 Gy and the right column is 4 Gy. Cell counts were performed 72 hrs. following irradiation. (**p<0.01, ***p<0.001)

[6] = tested on: SIRT1 protein expression in 22Rv1; assay: Western blot for SIRT1 after BMP treatment; type: cell-based, human; settings: serum-starved, 50 ng/ml BMP4 for 4 hours
Method: FIG. 20A) Western blot for SIRT1 expression measured in 22Rv1 cells following serum starvation and treatment with 50 ng/ml BMP4 for 4 hours. Phosphorylated Smad1/5 and β-actin was measured concurrently. FIG. 20B) SIRT1 mRNA expression was measured in CW22Rv1 under serum free conditions with 50 ng/ml BMP4, IgG in the context of increasing doses of TRC105 (0.05, 0.1, 0.5, 1, 5, or 10 μg/ml). SIRT1 mRNA expression was normalized to GAPDH and to serum treated control. FIG. 20C) Fold Change of SIRT1 mRNA in benign prostate and prostate cancer patients, obtained from R2-Genomics analysis is expressed (n=95). FIG. 20D) Immunohistochemical localization for SIRT1 expression in benign and prostate cancer tissues is indicated by arrows (Human Protein Atlas). The “e” and “s” indicate epithelia and stromal compartments in the tissues, respectively. FIG. 20E) SIRT1 mRNA expression was measured 72 hours following irradiation of 22Rv1 in a dose range of 0-6 Gy. FIG. 20F) SIRT1 mRNA expression was measured in a time course 0-72 hours following 4 Gy irradiation. SIRT1 mRNA expression was normalized to GAPDH and to untreated, 0 Gy. Data are reported as a mean+/−S.D. of 3 independent experiments (***p<0.001, ****p<0.0001).

Rv1 cells [7] = assay: Rv1 proliferation with recombinant SFRP1; type: cell-based, human; settings: same doses of SFRP1, 72 hours
Excerpt: Associations between copy number (CN), gene expression (GE), and methylation (Me) are denoted by lines from one node to another (p<0.01).

Rv1 cells [8] = assay: Neuroendocrine gene panel in Rv1 treated with recombinant SFRP1; type: cell-based, human; settings: 0, 0.01, 0.1, 1 μg/ml SFRP1; p<0.002
Excerpt: See also FIG. 15. […] Immunohistochemical localization of CD105 and SFRP1 in benign or PCa tissues are found in blood vessels (v), epithelia (e), and stroma (s), n=4. Scale bar represents 100 μm. FIG. 12E) Epithelial proliferation of human CW22Rv1, in 3D co-cultures with mouse prostatic fibroblasts, were co-stained for EpCam and Ki67 for FACS analysis. […] See also FIG. 16. […] Error bars are mean+/−SD and **p<0.01, ****p<0.0001, compared to control unless otherwise indicated.
Total RNA was extracted using the RNeasy kit (Qiagen). 1 μg RNA was used for cDNA synthesis using iSCRIPT cDNA synthesis kit (1708891, Bio-Rad). Quantitative RT-PCR was performed with 5 replicates using the Step One Real-Time PCR system (Applied Biosystems). Gene mRNA expression was normalized to GAPDH. Primer sequences can be found in the Table 1. For RNA-sequencing, Ion Proton AmpliSeq Transcriptome RNA Sequencing was performed achieving an average of 3M reads. We mapped an average of 88% of the reads to the human genome with Torrent Suite version 4.4.2.

CNC(=O)c1ccc(N2C(=S)N(c3ccc(C#N)c(C(F)(F)F)c3)C(=O)C2(C)C)cc1F [enzalutamide, reference compound]
cell turnover by phosphorylated-histone H3 and TUNEL [1]: statistically comparable to control intact mice
tumor volume [1]: statistically comparable to control intact mice; also recorded: did not significantly decrease tumor growth
CD105 cell surface expression [2]: three-fold increase
cell proliferation (MTT) (Rv1): significantly reduced cell proliferation; also recorded: sensitive to enzalutamide treatment
cell proliferation (MTT) (C42B): significantly reduced cell proliferation
viability (MTT) (PC3 cells): insensitive
SFRP1 expression in PDX ([3]; enzalutamide treatment): upregulated
CD105 expression in PDX tissues ([3]; following 4 days of enzalutamide administration): elevated in both epithelial and CAF populations

NC(=O)c1cccnc1 [nicotinamide, reference compound]
cellular ATP stores (22Rv1 cells [4]): depleted regardless of radiation treatment
acetylated and total-p53 (p53 in 22Rv1 cells; by 7 days post radiation): markedly increased
anti-apoptotic protein Bc1-2 (p53 in 22Rv1 cells; prior to 4Gy irradiation): decrease in the anti-apoptotic protein Bc1-2
p21 (p53 in 22Rv1 cells; prior to 4Gy irradiation): increase in p21
acetylated p53 (p53 in 22Rv1 cells; treatment prior to 4Gy, nicotinamide 200 μM): increase in acetylated p53

CC[C@H]1/C=C/C=C/C[C@@H](C)[C@H](O)[C@@](C)(O)C(=O)[C@@H](C)[C@H](O)[C@@H](C)C(=O)[C@@H](C)[C@H](O)[C@@H](C)/C=C/C(=O)O[C@@H]2[C@H](C)[C@H](CC1)O[C@]1(CC[C@H](C)[C@H](C[C@@H](C)O)O1)[C@H]2C [oligomycin]
cell proliferation by cell counting (22Rv1 cells [5]): significantly reduced cell proliferation

B1: BMP: bone morphogenic protein (BMP4, 50 ng/ml) used to stimulate 22Rv1 cells (protein, UniProt P12644 293-408, looked up)
Bone morphogenetic protein 4: SPKHHSQRARKKNKNCRRHSLYVDFSDVGWNDWIVAPPGYQAFYCHGDCPFPLADHLNSTNHAIVQTLVNSVNSSIPKACCVPTELSAISMLYLDEYDKVVLKNYQEMVVEGCGCR
SIRT1 protein expression [6]: induced SIRT1 protein expression

B2: SFRP1: human recombinant SFRP1 (Secreted Frizzled Related Protein 1) (protein, UniProt Q8N474 32-314, looked up)
Secreted frizzled-related …: SEYDYVSFQSDIGPYQSGRFYTKPPQCVDIPADLRLCHNVGYKKMVLPNLLEHETMAEVKQQASSWVPLLNKNCHAGTQVFLCSLFAPVCLDRPIYPCRWLCEAVRDSCEPVMQFFGFYWPEMLKCDKFPEGDVCIAMTPPNATEASKPQGTTVCPPCDNELKSEAIIEHLCASEFALRMKIKEVKKENGDKKIVPKKKKPLKLGPIKKKDLKKLVLYLKNGADCPCHQLDNLSHHFLIMGRKVKSQYLLTAIHKWDKKNKEFKNFMKKMKNHECPTFQSVFK
epithelial proliferation (Rv1 cells [7]): no effect
expression of panel of 9 PCa NED genes (Rv1 cells [8]): significant induction of a panel of 9 PCa NED genes in a dose dependent manner
